Results from patent US10105372B2, “Methods of treating obesity using antioxidant inflammation modulators” (REATA PHARMACEUTICALS, INC., priority 2010, dated 2018).
Several values for one entry are separate records, joined by “and”; a condition that tells them apart may be missing. Equal values may be shown once. Entries after “also recorded” stand apart in the source; their conditions may differ.

How the values were obtained:
Nrf2 = Nrf2 activity in blood cells in clinical trials; type: in vivo, human; details: at therapeutic doses
Source text: One AIM, bardoxolone methyl (BARD), is in advanced clinical trials for the treatment of chronic kidney disease.

[1] = 12-month toxicity study, body weight; type: in vivo, cynomolgus monkeys; details: for % gain / kg gained: pretest to Week 50
Method: (§1) All the animals were healthy and within normal weights for their age at the start of the study. The dose levels were 0, 30/5, 100/30, and 300 mg/kg/day and administered at a dose volume of 3 mL per dose. The control group received the vehicle in the same manner as the treated groups. Just prior to administration, the test article for each animal was added to the syringe containing the vehicle for each animal and vortexed until thoroughly mixed to achieved the desired concentrations of 30, 100, and 300 mg/mL through Day 42 (Week 6). During administration, the syringe containing the test article preparation for each animal was pushed through the gavage tube. The 1 mL vehicle rinse was then added to the dosing syringe and administered. After administration of both volumes, a 5 mL flush of the vehicle was used to rinse the gavage tube and ensure that the entire amount of the test article was administered to the animal. […] Therefore, dose levels were adjusted so that different blood exposures could be examined. During Week 7 dosing for all animals was stopped for four days (Days 43 to 46). The initial dose levels of 30 and 100 mg/kg/day were reduced to 5 and 30 mg/kg/day, respectively, and dosing was resumed on Day 47 through Day 353. Individual doses were based on the most recent body weights.

[2] = Phase 2 clinical trial, patient body weight and tolerability; type: in vivo, human
Method: See Example 1, below. […] In this study, the protocol stipulated that patient weights were to be taken at baseline (D−1=1 day before initiation of dosing), Day 28, and Day 56. […] In this study, the protocol stipulated that patient weights were to be taken at baseline (D−1=1 day before initiation of dosing), Day 28, and Day 56. […] Prior to initiation of treatment, basic clinical observations (e.g., weight, blood pressure, height) were recorded along with baseline values for serum creatinine, blood urea nitrogen, serum phosphorus, serum uric acid, angiotensin II, fasting glucose, hemoglobin A1c, circulating endothelial cells (CECs), and iNOS-positive CECs.

[3] = Phase 2b/3 trial, estimated GFR and CKD stage; type: in vivo, human; details: for patients with improvement in CKD stage: Stage 4 to 3b or 3b to 3a; for Change from baseline eGFR, mean ± SE: longitudinal model
Method: Weight measurements were included in the study as a basic clinical parameter. […] Screening estimated GFR was calculated as the mean of two estimated GFR results (differing no more than 25%) collected at least 5 days apart within a 3-week period. […] Exclusion criteria included type 1 diabetes, non-diabetic kidney disease, hemoglobin A1c>10%, QTc […] interval >450 milliseconds, evidence of hepatic dysfunction, and recent cardiovascular disease. […] Study drug was taken orally once daily in the morning one hour prior to food intake. Dose titration occurred as follows: (1) placebo; (2) 25 mg; (3) 25 mg, increased to 75 mg after 4 weeks; and (4) 25 mg, increased to 75 mg after 4 weeks, further increased to 150 mg after an additional 4 weeks. Randomization was stratified by CKD stage (3b versus 4), urinary albumin to creatinine ratio (ACR; ≤ versus >300 mg/g), and glucose control (hemoglobin A1c< versus ≥7%). An independent Data Safety Monitoring Board monitored patient safety. Estimated GFR and routine safety laboratory testing was done at screening and every four weeks thereafter using a central laboratory. Adverse events and clinical laboratory parameters were assessed at each visit. Analysis of the primary outcome, change from baseline estimated GFR at Week 24, occurred after all randomized patients completed Week 24 or previously discontinued study. Exploratory outcomes included change from baseline at Week 24 in serum creatinine, blood urea nitrogen, serum phosphorus, uric acid, ACR, hemoglobin A1c, and intact parathyroid hormone.

[4] = 12-month toxicity study, whole blood exposure; type: in vivo, cynomolgus monkeys; details: Days 1 and 28; 30, 100 and 300 mg/kg/day oral gavage
Method: as §1

[5] = Week 24, all bardoxolone methyl patients

In the case of `COC(=O)[C@]12CCC(C)(C)C[C@H]1[C@H]1C(=O)C=C3[C@@]4(C)C=C(C#N)C(=O)C(C)(C)[C@@H]4CC[C@@]3(C)[C@]1(C)CC2` [bardoxolone methyl], the “Nrf2 activity in blood cells” value (Nrf2) is reported as “induces Nrf2 activity”, the “Week 26 Weight” value ([1]; Females, 300 mg/kg/day) is reported as 2.552 kg and the “Week 50 Weight” value ([1]; Females, 300 mg/kg/day) is reported as 2.68 kg. The “% gain” value ([1]; Females, 300 mg/kg/day) was 28.60%, the kg gained ([1]; Females, 300 mg/kg/day) was 0.596 kg and the “Week 26 Weight” value ([1]; Females, 30/5 mg/kg/day) was 2.454 kg. For the same molecule, the “Week 50 Weight” value ([1]; Females, 30/5 mg/kg/day) was 2.608 kg, the “% gain” value ([1]; Females, 30/5 mg/kg/day) was 26.05% and the kg gained ([1]; Females, 30/5 mg/kg/day) was 0.539 kg. The “Week 26 Weight” value ([1]; Females, 100/30 mg/kg/day) was 2.293 kg, the “Week 50 Weight” value ([1]; Females, 100/30 mg/kg/day) was 2.68 kg and the “% gain” value ([1]; Females, 100/30 mg/kg/day) was 30.22%. For the same molecule, the kg gained ([1]; Females, 100/30 mg/kg/day) was 0.622 kg, the “Week 26 Weight” value ([1]; Males, 300 mg/kg/day) was 2.52 kg and the “Week 50 Weight” value ([1]; Males, 300 mg/kg/day) was 2.808 kg. The “% gain” value ([1]; Males, 300 mg/kg/day) was 31.15%, the kg gained ([1]; Males, 300 mg/kg/day) was 0.667 kg and the “Week 50 Weight” value ([1]; Males, 30/5 mg/kg/day) was 2.975 kg. For the same molecule, the “Week 26 Weight” value ([1]; Males, 30/5 mg/kg/day oral gavage) was 2.567 kg, the “% gain” value ([1]; Males, 30/5 mg/kg/day) was 39.80% and the kg gained ([1]; Males, 30/5 mg/kg/day) was 0.847 kg. The “Week 26 Weight” value ([1]; Males, 100/30 mg/kg/day) was 2.464 kg, the “Week 50 Weight” value ([1]; Males, 100/30 mg/kg/day) was 2.725 kg and the “% gain” value ([1]; Males, 100/30 mg/kg/day) was 26.63%. For the same molecule, the kg gained ([1]; Males, 100/30 mg/kg/day) was 0.573 kg, the “effect on body weight” value ([1]; healthy monkeys with normal body weights, all treated groups, 26 and 50 weeks) was “gained significant amounts of weight; also recorded: did not induce weight loss” and the mean weight loss ([2]; Day 28) was 1.6 % of baseline weight. For the same molecule, the “patients who had lost weight at Day 28” value ([2]; Day 28, 25 mg once per day) was 14 of 17, the mean weight loss ([2]; Day 56) was 3.7 % of baseline and the median weight loss ([2]; Day 56, of baseline) was 3.1%. The “patients who had lost weight at Day 56” value ([2]; Day 56, 25 mg/day 28 days then 75 mg/day 28 days) was 17 of 17, the “patients who lost more than 2% of their baseline weight” value ([2]; between Day −1 and Day 56) was “all but three” and the “Weight D28” value ([2]; individual CKD/Type 2 diabetes patients, Day 28, 25 mg once per day oral) was 80.7 kg and 75.7 kg and 108.9 kg (2×) and 80.3 kg and 112.9 kg and 78.9 kg and 88.5 kg and 104.3 kg and 169.3 kg and 52.6 kg and 83.5 kg and 159.7 kg and 114 kg and 92.1 kg and 89.9 kg and 88.0 kg. The “Percent Change D28/D-1 (weight)” value ([2]; individual patients, Day 28 vs baseline, 25 mg/day) was 0.0% (2×) and −0.7% and −2.4% (2×) and −1.6% and −3.5% and −1.2% and −8.5% and −1.4% and −0.1% and −12.8% and −0.5% and 0.3% and −0.3% and −1.0% and −3.0%, the “Weight D56” value ([2]; individual patients, Day 56, 25 mg/day 28 days then escalated to 75 mg/day 28 days) was 75.7 kg and 74.4 kg and 107.0 kg and 78.5 kg and 97.1 kg and 108.0 kg and 111.1 kg and 77.1 kg and 88 kg and 102.1 kg and 165.9 kg and 52.2 kg and 80.3 kg and 157.9 kg and 110.4 kg and 87.1 kg and the “Weight D56” value ([2]; individual patients, Day 56, start dose 25 mg, escalated dose N/A) was 91.6 kg and 87.4 kg. For the same molecule, the “Percent Change D56/D-1 (weight)” value ([2]; individual patients, Day 56 vs baseline, 25 mg/day then escalated to 75 mg/day) was −6.2% and −2.4% and −4.1% and −3.8% and −6.9% and −3.2% and −2.8% and −10.6% and −2.0% and −2.1% and −13.4% and −4.3% and −0.8% and −3.5% and −1.0%, the “Percent Change D56/D-1 (weight)” value ([2]; individual patients, Day 56 vs baseline, start dose 25 mg, escalated dose N/A) was −1.5% and −5.7% and the “Weight D28, Mean” value ([2]; mean of all patients, Day 28) was 99.4 kg. For the same molecule, the “Percent Change D28/D-1 (weight), Mean” value ([2]; mean of all patients, Day 28 vs baseline) was −1.6%, the “Weight D56, Mean” value ([2]; mean of all patients, Day 56) was 97.3 kg and the “Percent Change D56/D-1 (weight), Mean” value ([2]; mean of all patients, Day 56 vs baseline) was −3.7%. The tolerability ([2]; patients with Type 2 diabetes and CKD, 56 days) was “very well tolerated”, the “patients with improvement in CKD stage” value ([3]; 25 mg group) was 53% and the “patients with improvement in CKD stage” value ([3]; 75 mg group) was 69%. The “patients with improvement in CKD stage” value ([3]; 150 mg group) was 61%, the “estimated GFR, mean increases compared to placebo” value (“estimated GFR, mean increases” below) ([3]; Week 24, 25 mg group) was 8.3±1.1 mL/min/1.73 m^2 and the “Change from baseline eGFR, difference between bardoxolone methyl and placebo, mean ± SE” value ([3]; Week 24, 25 mg vs placebo) was 8.2 ± 1.5 mL/min/1.73 m^2. For the same molecule, the “Change from baseline eGFR, mean ± SE” value ([3]; Week 24, 25 mg) was 8.3 ± 1.1 mL/min/1.73 m^2, the “estimated GFR, mean increases” value ([3]; Week 24, 75 mg group) was 11.5±1.1 mL/min/1.73 m^2 and the “Change from baseline eGFR, difference between bardoxolone methyl and placebo, mean ± SE” value ([3]; Week 24, 75 mg vs placebo) was 11.4 ± 1.5 mL/min/1.73 m^2. For the same molecule, the “Change from baseline eGFR, mean ± SE” value ([3]; Week 24, 75 mg) was 11.5 ± 1.1 mL/min/1.73 m^2, the “estimated GFR, mean increases” value ([3]; Week 24, 150 mg group) was 10.6±1.1 mL/min/1.73 m^2 and the “Change from baseline eGFR, difference between bardoxolone methyl and placebo, mean ± SE” value ([3]; Week 24, 150 mg vs placebo) was 10.5 ± 1.5 mL/min/1.73 m^2. The “Change from baseline eGFR, mean ± SE” value ([3]; Week 24, 150 mg) was 10.6 ± 1.1 mL/min/1.73 m^2, the “patients with more than a 10% increase in estimated GFR” value [3, 5] was 74% and the “patients with more than a 50% increase in estimated GFR” value [3, 5] was 24%. For the same molecule, the “Change from baseline eGFR, difference between bardoxolone methyl and placebo, mean ± SE” value ([3]; Week 24, combined vs placebo) was 10.0 ± 1.3 mL/min/1.73 m^2, the “time from treatment initiation to observed increases in estimated GFR” value ([3]; bardoxolone methyl groups) was at most 4 weeks and the “time of peak increase in estimated GFR” value ([3]; bardoxolone methyl groups, stable through Week 24) was 12 Week. For the same molecule, the “patients with worsening of CKD stage” value ([3]; each bardoxolone methyl group (2 patients)) was 4% and the “exposure in whole blood samples” value [4] was “no significant differences in exposure across the three dose levels”.
